The test system of series [1] is herpes simplex viruses (HSV). The note with it: cell cultures; Spadari et al. 1992; cited from earlier work.
Series [2] concerns noninfected CEM-SS cells. As to the kind of experiment: Toxic effect on noninfected cells (formazan formation), CEM-SS. The settings on record: at least 50% inhibition of formazan formation, 5 days. How it is done:
(§1) The toxic effect on the noninfected cells is assessed by calorimetric reaction based on the capacity of live cells to reduce 3-(4,5-dimethylthiozol-2-yl)-2,5-diphenyltetrazolium bromide to formazan after incubating for 5 days in the presence of various concentrations of the compounds.

For series [3], the system named is noninfected PBM cells. Kind of series: Toxic effect on noninfected cells (formazan formation), PBM. The note with it: at least 50% inhibition of formazan formation, 5 days. How it is done: as §1
The subject of series [4] is noninfected PBMC. As to the kind of experiment: Toxic effect on noninfected cells (formazan formation), PBMC. The note with it: at least 50% inhibition of formazan formation, 5 days. How it is done: as §1
The subject of series [5] is HIV. The settings on record: CEM cell culture; Mansuri et al. 1991; read-out: IC50 against HIV; cited from earlier work.
Series [6] deals with HIV. The settings on record: prior art reports; listed as β-L-DDC; cited from earlier work.

Entries after “also recorded” stand apart in the source; their conditions may differ.

As a reminder, the IC50 is the concentration that gives 50% inhibition.

Consider `Cc1cn([C@@H]2C[C@@H](O)[C@H](CO)O2)c(=O)[nH]c1=O` [β-L-Thymidine], for which the “antiviral activity against HSV (in words)” value in series [1] is given as “relatively limited antiviral activity”.

As to `Cc1cn([C@H]2C[C@H](N=[N+]=[N-])[C@@H](CO)O2)c(=O)[nH]c1=O` [AZT, reference compound], the CD50 in series [2] is >10^−4 M; in series [3], 7e-05 M; in series [4], 8e-05 M.

Consider `Nc1nc(=O)n([C@@H]2CC[C@H](CO)O2)cc1F` [Compound 21b, 2′,3′-dideoxy-β-L-5-fluorocytidine], for which the CD50 in series [2] is 9e-05 M; in series [3], 10^−4 M; in series [4], 10^−4 M.

For the compound `Nc1ccn([C@@H]2CC[C@H](CO)O2)c(=O)n1` [Compound 21a, 2′,3′-dideoxy-β-L-cytidine], the CD50 was 8.3e-05 M in series [2], 10^−4 M in series [3] and 10^−4 M in series [4]. Further, the IC50 in series [5] is 660 nM. In series [6], the “activity against HIV (in words)” value is reported as “relatively limited antiviral activity; also recorded: no activity against HIV”.

As to `Nc1ccn([C@H]2CC[C@@H](CO)O2)c(=O)n1` [DDC, reference compound], the values for the CD50 in series [2], in series [3] and in series [4] were 6e-05 M, 7e-05 M and 2.5e-05 M, respectively.

These data come from patent US7439351B2, “2′ or 3′ -deoxy and 2′, 3′-dideoxy-β-L-pentofuranonucleo-side compounds, method of preparation and application in therapy, especially as anti-viral agents” (The UAB Research Foundation, priority 1993, dated 2008).
